# Measurements: ChEMBL document CHEMBL2073880, “Heterologous expression of various P-glycoproteins in polarized epithelial cells induces directional transport of small (type 1) and bulky (type 2) cationic drugs” (J Pharmacol Exp Ther, 1998)
# Tests used:
# Type in all cases: functional, cell-based
# [1] = target: T1, ATP-dependent translocase ABCB1 (Mus musculus, UniProt P21447); assay: TP_TRANSPORTER: transepithelial transport (basal to apical) in Mdr1a-expressing LLC-PK1 cells; settings: pig
# [2] = target: T2, ATP-dependent translocase ABCB1 (Homo sapiens, UniProt P08183); assay: TP_TRANSPORTER: transepithelial transport (basal to apical) in MDR1-expressing LLC-PK1 cells; settings: pig
# T2 sequence (P08183 whole entry): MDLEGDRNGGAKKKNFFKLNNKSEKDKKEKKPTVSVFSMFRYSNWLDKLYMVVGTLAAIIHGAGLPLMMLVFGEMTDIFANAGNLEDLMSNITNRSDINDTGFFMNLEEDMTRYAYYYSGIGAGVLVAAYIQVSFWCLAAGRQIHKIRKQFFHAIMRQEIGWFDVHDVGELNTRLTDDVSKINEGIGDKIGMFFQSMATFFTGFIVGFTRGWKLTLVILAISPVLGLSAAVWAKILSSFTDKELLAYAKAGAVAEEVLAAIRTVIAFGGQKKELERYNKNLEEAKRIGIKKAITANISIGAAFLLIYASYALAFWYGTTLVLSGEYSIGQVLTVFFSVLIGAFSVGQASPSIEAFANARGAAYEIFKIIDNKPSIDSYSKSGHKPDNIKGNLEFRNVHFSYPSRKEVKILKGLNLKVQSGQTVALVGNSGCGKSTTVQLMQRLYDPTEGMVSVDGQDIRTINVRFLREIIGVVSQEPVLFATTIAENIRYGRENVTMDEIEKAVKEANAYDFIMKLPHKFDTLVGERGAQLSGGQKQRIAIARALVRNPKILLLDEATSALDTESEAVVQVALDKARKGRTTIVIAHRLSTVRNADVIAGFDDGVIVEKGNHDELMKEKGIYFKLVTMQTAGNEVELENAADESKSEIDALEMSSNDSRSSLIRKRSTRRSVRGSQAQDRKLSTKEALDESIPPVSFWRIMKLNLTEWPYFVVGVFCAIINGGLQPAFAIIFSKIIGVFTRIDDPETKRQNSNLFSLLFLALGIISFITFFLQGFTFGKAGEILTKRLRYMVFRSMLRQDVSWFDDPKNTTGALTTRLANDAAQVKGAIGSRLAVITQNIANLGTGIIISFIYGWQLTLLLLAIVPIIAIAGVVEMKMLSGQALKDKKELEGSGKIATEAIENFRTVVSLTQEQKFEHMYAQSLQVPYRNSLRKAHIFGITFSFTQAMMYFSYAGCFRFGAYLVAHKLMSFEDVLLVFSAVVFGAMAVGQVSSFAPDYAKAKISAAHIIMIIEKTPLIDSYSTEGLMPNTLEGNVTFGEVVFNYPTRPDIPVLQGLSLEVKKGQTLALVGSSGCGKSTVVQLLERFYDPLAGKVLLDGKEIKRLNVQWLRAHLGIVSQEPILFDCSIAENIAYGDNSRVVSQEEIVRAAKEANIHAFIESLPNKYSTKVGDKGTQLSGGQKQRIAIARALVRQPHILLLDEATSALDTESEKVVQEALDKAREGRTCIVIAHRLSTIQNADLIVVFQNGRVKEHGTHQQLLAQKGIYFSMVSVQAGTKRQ
# [3] = target: T3, ATP-dependent translocase ABCB1 (Mus musculus, UniProt P06795); assay: TP_TRANSPORTER: transepithelial transport (basal to apical) in Mdr1b-expressing LLC-PK1 cells; settings: pig
# T3 sequence (P06795 whole entry): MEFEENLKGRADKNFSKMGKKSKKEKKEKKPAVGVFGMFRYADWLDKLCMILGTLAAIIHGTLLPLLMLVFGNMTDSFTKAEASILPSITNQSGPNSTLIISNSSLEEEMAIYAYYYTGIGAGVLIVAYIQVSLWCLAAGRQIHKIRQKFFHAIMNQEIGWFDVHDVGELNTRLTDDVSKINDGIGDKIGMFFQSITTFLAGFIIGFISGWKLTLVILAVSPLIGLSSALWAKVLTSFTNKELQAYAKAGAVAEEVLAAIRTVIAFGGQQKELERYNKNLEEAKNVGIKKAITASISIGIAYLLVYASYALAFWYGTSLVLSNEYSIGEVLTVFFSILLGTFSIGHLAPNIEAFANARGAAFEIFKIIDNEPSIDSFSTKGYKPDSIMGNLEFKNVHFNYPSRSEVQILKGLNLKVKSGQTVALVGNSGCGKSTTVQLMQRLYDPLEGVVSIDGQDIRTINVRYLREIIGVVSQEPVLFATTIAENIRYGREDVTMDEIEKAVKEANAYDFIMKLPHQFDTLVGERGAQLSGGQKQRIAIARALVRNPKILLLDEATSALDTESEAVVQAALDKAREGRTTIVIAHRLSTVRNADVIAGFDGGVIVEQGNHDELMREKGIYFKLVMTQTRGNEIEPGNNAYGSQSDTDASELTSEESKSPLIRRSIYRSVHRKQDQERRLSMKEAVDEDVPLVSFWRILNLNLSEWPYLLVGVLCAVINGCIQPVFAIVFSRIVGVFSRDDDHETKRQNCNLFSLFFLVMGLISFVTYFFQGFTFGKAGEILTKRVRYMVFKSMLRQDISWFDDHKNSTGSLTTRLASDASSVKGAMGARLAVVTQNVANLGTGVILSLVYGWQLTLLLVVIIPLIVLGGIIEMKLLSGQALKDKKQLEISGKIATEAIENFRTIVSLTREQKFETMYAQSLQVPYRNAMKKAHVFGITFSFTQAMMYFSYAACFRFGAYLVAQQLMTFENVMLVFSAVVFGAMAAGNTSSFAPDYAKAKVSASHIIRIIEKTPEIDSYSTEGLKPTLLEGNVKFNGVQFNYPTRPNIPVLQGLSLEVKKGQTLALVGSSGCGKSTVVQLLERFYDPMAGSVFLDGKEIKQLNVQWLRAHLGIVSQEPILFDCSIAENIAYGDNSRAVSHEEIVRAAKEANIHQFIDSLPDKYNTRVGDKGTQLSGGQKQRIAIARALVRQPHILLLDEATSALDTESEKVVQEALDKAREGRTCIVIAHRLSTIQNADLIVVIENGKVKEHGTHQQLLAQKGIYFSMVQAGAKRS
# [4] = target: T3, ATP-dependent translocase ABCB1; assay: TP_TRANSPORTER: inhibition of TBuMA transepithelial transport (basal to apical)(TBuMA: 10 uM, Vinblastine: 2 uM) in Mdr1b-expressing LLC-PK1 cells; settings: pig, llc-pk1, 2 µM
# [5] = target: T2, ATP-dependent translocase ABCB1; assay: TP_TRANSPORTER: inhibition of TBuMA transepithelial transport (basal to apical)(TBuMA: 10 uM, Vinblastine: 2 uM) in MDR1-expressing LLC-PK1 cells; settings: pig, llc-pk1, 2 µM
# [6] = target: T1, ATP-dependent translocase ABCB1; assay: TP_TRANSPORTER: inhibition of TBuMA transepithelial transport (basal to apical)(TBuMA: 10 uM, Vinblastine: 2 uM) in Mdr1a-expressing LLC-PK1 cells; settings: pig, llc-pk1, 2 µM
# T1 sequence (P21447 whole entry): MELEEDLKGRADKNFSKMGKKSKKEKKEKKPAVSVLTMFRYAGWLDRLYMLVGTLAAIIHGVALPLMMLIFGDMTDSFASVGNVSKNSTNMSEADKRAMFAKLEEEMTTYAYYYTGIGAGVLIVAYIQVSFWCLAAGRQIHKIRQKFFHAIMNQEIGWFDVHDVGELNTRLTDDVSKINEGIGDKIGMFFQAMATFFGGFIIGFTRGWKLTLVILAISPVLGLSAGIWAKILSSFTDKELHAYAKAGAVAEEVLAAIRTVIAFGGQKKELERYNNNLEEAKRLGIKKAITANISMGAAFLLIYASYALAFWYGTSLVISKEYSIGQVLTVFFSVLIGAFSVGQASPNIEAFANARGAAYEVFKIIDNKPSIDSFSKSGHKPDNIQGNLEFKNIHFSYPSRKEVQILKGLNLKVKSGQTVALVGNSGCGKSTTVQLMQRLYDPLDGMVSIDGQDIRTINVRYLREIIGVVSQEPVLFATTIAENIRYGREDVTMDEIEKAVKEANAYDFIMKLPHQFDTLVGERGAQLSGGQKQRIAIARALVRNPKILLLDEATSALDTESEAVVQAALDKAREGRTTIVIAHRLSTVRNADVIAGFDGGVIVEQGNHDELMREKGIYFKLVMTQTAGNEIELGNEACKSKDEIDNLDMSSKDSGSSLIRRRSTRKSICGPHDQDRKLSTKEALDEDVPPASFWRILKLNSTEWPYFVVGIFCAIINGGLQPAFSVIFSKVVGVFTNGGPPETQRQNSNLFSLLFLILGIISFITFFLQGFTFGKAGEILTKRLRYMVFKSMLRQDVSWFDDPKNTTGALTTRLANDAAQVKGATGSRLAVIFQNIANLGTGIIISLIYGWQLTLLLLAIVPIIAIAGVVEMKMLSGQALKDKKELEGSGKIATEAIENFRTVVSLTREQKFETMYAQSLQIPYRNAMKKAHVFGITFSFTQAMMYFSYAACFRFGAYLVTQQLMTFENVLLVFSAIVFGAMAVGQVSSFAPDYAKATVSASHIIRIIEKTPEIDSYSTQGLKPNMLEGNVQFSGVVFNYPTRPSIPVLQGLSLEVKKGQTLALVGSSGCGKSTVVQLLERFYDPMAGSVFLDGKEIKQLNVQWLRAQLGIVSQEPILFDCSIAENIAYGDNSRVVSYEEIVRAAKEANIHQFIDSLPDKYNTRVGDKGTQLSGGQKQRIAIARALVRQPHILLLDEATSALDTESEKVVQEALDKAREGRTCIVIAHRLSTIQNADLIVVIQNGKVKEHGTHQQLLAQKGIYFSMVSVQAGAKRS
Compound,Activity [1],Activity [2],Activity [3],Activity [4],Activity [5],Activity [6]
CC[N+](C)(CC)CCNC(=O)c1ccc(N=[N+]=[N-])cc1.[I-] [AZIDOPROCAINAMIDE METHOIODIDE],substrate [+],substrate [+],–,–,–,–
CCCC[N+](C)(CCCC)CCCC [TRIBUTYLMETHYLAMMONIUM],substrate [+],substrate [+],substrate [+],–,–,–
CC(=O)O[C@H]1C[C@@H]2CC[C@@H]3[C@H](CC[C@@]4(C)[C@H]3C[C@H]([N+]3(C)CCCCC3)[C@@H]4OC(C)=O)[C@@]2(C)C[C@@H]1N1CCCCC1 [VECURONIUM],substrate [+],substrate [+],substrate [+],–,–,–
CC[C@]1(O)C[C@@H]2CN(CCc3c([nH]c4ccccc34)[C@@](C(=O)OC)(c3cc4c(cc3OC)N(C)[C@H]3[C@@](O)(C(=O)OC)[C@H](OC(C)=O)[C@]5(CC)C=CCN6CC[C@]43[C@@H]65)C2)C1 [VINBLASTINE],substrate [+],–,substrate [+],inhibitor [+],inhibitor [+],inhibitor [+]
